{
  "source": "patent US9463216B2",
  "about": "(priority 2012, dated 2016)",
  "molecular_target": "PA (Bacillus anthracis, UniProt P13423)",
  "sequence (P13423 30-764 limits assumed)": "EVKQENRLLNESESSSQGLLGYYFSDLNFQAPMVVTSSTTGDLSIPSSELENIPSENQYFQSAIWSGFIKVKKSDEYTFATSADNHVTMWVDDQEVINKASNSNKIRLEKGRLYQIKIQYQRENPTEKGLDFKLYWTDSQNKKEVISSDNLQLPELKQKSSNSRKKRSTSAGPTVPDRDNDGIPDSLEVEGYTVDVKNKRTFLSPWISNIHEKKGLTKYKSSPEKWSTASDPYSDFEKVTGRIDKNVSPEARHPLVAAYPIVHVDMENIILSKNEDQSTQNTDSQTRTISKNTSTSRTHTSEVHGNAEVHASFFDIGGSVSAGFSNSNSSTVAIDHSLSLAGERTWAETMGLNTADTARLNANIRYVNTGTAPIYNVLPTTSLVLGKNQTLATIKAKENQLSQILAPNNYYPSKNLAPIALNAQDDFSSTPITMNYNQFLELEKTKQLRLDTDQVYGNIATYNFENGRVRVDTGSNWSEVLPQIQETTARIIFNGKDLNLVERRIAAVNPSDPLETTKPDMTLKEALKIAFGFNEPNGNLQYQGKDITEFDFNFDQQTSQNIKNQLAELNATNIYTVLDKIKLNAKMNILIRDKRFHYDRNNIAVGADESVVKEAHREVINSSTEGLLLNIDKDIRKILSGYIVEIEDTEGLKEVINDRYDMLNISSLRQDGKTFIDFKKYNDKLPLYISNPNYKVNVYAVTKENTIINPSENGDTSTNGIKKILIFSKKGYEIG",
  "assay_type": "binding, B. anthracis",
  "data": [
    {"substance": "poly-γ-D-glutamic acid [Compound 3]", "values": [
      {"measurement": "form complexes with PA", "value": "can form complexes with PA"}
    ]}
  ]
}
